Laboratory results as given in PMC10401862, “A high-throughput dual system to screen polyphosphate kinase mutants for efficient ATP regeneration in L-theanine biocatalysis” (Biotechnology for Biofuels and Bioproducts, 2023).

Tests used:
Format in all cases: biochemical
[1] = molecular target: T1, PaPPK2III (Pseudomonas aeruginosa, UniProt Q9HYF1); test: coupled hexokinase / G6PD assay, […] nm; settings: 100 mM Tris-HCl pH 8.0, 35 °C, 10 mM ADP, 50 mM polyP6, 25 mM MgCl2
T1 construct: gene PA3455; expressed in E. coli BL21(DE3) from pET-28a, Ni-NTA purified
T1 sequence (Q9HYF1 1-496): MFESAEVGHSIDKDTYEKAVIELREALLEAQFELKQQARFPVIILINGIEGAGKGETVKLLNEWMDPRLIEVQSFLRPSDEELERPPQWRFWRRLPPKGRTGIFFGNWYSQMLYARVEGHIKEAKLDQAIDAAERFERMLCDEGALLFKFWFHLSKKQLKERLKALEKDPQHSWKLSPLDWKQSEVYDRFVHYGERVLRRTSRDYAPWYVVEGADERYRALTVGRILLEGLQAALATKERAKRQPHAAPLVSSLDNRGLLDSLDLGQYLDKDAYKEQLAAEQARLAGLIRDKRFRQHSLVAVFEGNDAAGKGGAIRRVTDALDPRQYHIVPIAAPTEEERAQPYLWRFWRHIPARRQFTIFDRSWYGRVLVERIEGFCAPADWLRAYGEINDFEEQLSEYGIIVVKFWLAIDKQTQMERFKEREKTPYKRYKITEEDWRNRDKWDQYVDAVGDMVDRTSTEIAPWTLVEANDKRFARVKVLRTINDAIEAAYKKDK

[2] = molecular target: T2, EbPPK (Erysipelotrichaceae bacterium, UniProt P0DY74); test: coupled hexokinase / G6PD assay, […] nm; settings: 100 mM Tris-HCl pH 8.0, 35 °C
T2 construct: gene DHS57_05705; synthesized gene expressed in E. coli BL21(DE3) from pXMJ-19, Ni-NTA purified
T2 sequence (P0DY74 1-298): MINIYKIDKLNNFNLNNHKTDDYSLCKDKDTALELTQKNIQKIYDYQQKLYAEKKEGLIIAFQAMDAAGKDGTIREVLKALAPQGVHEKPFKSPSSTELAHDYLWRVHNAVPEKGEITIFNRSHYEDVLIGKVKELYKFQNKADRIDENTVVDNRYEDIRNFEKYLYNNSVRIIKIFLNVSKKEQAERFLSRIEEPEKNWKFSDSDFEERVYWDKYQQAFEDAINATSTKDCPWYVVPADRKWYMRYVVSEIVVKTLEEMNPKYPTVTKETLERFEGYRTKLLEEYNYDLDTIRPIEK

[3] = molecular target: T3, PaPPK2II (Pseudomonas aeruginosa, UniProt Q9I154); test: coupled hexokinase / G6PD assay, […] nm; settings: 100 mM Tris-HCl pH 8.0, 35 °C, 10 mM ADP, 50 mM polyP6, 25 mM MgCl2
T3 construct: gene PA2428; expressed in E. coli BL21(DE3) from pET-28a, Ni-NTA purified
T3 sequence (Q9I154 1-304): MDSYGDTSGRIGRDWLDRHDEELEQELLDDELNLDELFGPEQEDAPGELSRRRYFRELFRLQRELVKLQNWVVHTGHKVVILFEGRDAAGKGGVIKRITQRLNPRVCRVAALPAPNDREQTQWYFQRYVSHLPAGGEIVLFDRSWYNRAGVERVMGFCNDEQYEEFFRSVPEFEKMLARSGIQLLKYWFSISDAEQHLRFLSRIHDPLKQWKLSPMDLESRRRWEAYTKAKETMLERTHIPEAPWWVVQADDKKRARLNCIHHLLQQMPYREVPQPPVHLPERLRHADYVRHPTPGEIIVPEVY

[4] = molecular target: T4, GS (Corynebacterium glutamicum, UniProt H7C697); test: L-glutamine production, HPLC with OPA derivatization; settings: Tris-HCl pH 8.0, 37 °C, 100 mM (NH4)2SO4, 150 mM ATP, 50 mM MgCl2
T4 construct: gene glnA; expressed in E. coli BL21(DE3), Ni-NTA purified
T4 sequence (H7C697 1-477): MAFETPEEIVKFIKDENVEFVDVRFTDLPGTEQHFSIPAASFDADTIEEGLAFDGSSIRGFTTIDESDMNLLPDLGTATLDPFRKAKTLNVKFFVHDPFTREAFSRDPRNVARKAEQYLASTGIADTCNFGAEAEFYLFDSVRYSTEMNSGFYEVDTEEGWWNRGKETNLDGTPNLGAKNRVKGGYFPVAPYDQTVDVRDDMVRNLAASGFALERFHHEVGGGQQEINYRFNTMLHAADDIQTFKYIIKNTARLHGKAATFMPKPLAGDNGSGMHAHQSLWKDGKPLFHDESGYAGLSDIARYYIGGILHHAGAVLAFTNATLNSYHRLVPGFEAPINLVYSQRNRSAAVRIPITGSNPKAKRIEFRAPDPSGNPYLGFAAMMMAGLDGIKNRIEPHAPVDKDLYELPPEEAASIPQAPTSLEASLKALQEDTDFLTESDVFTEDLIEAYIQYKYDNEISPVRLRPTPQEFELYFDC

[5] = molecular target: T5, ChPPK (Cytophaga hutchinsonii, UniProt A0A6N4SMB5); test: coupled hexokinase / G6PD assay, […] nm, double reciprocal plot; settings: 100 mM Tris-HCl pH 8.0, 35 °C, MgCl2; polyP6 1 to 7.5 mM, ADP as co-substrate
T5 construct: gene CHU_0107; synthesized gene expressed in E. coli BL21(DE3) from pXMJ-19, Ni-NTA purified
T5 sequence (A0A6N4SMB5 1-305): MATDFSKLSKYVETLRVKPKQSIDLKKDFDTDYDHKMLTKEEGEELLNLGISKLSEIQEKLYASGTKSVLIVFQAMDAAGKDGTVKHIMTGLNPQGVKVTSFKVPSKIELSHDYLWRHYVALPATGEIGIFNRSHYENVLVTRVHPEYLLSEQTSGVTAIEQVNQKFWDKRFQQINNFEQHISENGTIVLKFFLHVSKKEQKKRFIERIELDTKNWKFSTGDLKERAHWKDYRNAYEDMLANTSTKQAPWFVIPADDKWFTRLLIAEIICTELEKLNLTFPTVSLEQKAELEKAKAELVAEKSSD

[6] = molecular target: T6, ChPPK (Cytophaga hutchinsonii, UniProt A0A6N4SMB5, D82N); test: as above; settings: 100 mM Tris-HCl pH 8.0, 35 °C, MgCl2; polyP6 1 to 7.5 mM, ADP as co-substrate
T6 construct: gene CHU_0107; synthesized gene expressed in E. coli BL21(DE3) from pXMJ-19, Ni-NTA purified

[7] = molecular target: T7, ChPPK (Cytophaga hutchinsonii, UniProt A0A6N4SMB5, K103E); test: as above; settings: 100 mM Tris-HCl pH 8.0, 35 °C, MgCl2; polyP6 1 to 7.5 mM, ADP as co-substrate
T7 construct: gene CHU_0107; synthesized gene expressed in E. coli BL21(DE3) from pXMJ-19, Ni-NTA purified
T7 sequence (A0A6N4SMB5 entry or part of it K103E): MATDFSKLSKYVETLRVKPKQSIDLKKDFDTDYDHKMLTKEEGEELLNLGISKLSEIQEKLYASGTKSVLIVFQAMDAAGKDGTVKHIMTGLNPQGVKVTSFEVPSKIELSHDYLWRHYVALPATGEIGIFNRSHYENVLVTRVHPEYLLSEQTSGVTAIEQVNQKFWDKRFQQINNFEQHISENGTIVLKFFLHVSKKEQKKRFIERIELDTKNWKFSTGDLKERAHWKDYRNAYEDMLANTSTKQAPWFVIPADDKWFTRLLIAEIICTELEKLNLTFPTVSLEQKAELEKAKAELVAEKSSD

T6 sequence (A0A6N4SMB5 entry or part of it D82N): as the sequence (A0A6N4SMB5 entry or part of it K103E) above, with D82N, E103K counted along it

Compound: Nc1ncnc2c1ncn2[C@@H]1O[C@H](COP(=O)(O)OP(=O)(O)O)[C@@H](O)[C@H]1O [ADP]
- coupled hexokinase / G6PD assay, 340 nm [1]: the specific activities of the seven PPK enzymes
- coupled hexokinase / G6PD assay, 340 nm ([2]; 10 mM ADP, 50 mM polyP6, 25 mM MgCl2): polyP3, polyP6 and polyPn were carried out to show the specific activities
- coupled hexokinase / G6PD assay, 340 nm [3]: the specific activities of the seven PPK enzymes

Compound: Nc1ncnc2c1ncn2[C@@H]1O[C@H](COP(=O)(O)O)[C@@H](O)[C@H]1O [AMP]
- coupled hexokinase / G6PD assay, 340 nm ([2]; 10 mM AMP, polyP6, 25 mM MgCl2): EbPPK was capable of the best catalytic efficiency for converting AMP

Compound: N[C@@H](CCC(=O)O)C(=O)O [L-glutamate]
- L-glutamine production, HPLC with OPA derivatization [4]: We performed glutamine production from glutamate with GS enzyme

Compound: polyP6
- Km [5]: 2300 ± 20 µM
- Km [6]: 2120 ± 10 µM
- Km [7]: 2240 ± 20 µM
